The source made the active and inactive calls.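 Rule for the calls: active = dose response that fits an S-shaped curve with fit quality R squared above 0.5; inactive = the rest.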
Target: G protein-activated inward rectifier potassium channel 1 (Rattus norvegicus) (UniProt P63251)
Assay: alpha2C adrenergic receptor agonists via GIRK, dose response, cell-based, thallium flux (AID 435014)
Settings: HEK293 alpha2C/GIRK1/2, thallium flux fluorescence; for activation: at 10 µM (top of the series)

Sequence of G protein-activated inward rectifier potassium channel 1 (Rattus norvegicus) (P63251 whole entry, looked up): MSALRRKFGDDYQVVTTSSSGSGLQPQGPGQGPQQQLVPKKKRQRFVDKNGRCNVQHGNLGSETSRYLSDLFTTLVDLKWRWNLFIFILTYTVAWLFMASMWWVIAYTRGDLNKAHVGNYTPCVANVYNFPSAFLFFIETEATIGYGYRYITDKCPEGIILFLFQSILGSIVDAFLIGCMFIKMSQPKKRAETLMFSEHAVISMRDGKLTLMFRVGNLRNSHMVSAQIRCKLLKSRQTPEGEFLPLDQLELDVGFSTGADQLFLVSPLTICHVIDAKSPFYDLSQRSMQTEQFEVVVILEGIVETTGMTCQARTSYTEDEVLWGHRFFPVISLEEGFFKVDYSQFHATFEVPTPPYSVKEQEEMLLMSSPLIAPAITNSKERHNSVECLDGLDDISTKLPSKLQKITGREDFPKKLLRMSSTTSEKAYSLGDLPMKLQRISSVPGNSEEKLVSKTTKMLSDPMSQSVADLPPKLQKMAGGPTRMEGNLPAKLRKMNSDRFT

| SMILES | activation | EC50 [nM] |
| --- | --- | --- |
| CCCSc1nc(N2CCOCC2)c2c(c1C#N)CCCC2 | inactive |  |
| COC(=O)c1c(NC(=O)c2nn(C)cc2Cl)sc2c1CCCC2 | inactive |  |
| CCOc1ccc2nc(NC(=O)CSc3nc4ccccc4c(=O)n3Cc3ccco3)sc2c1 | inactive |  |
| COCCOC(=O)c1c(C)oc2ccc(OC(=O)COc3c(F)c(F)c(F)c(F)c3F)cc12 | inactive |  |
| COc1cc(C(=O)Nc2cccc(-c3nc4cc(C)ccc4o3)c2)cc(OC)c1OC | inactive |  |
| Cc1c(C(=O)NC2CCCc3ccccc32)oc2ccc(S(=O)(=O)N3CCOCC3)cc12 (stereo not given) | inactive |  |
| N#CCc1nc(CSc2nc3ccccc3s2)cs1 | inactive |  |
| CCOC(=O)CSc1nc2cc(C(=O)NCc3ccco3)ccc2c(=O)n1-c1ccc(F)cc1 | inactive |  |
| CCOC(=O)c1ccc(NC(=O)NC(C)C2CCCO2)cc1 (stereo not given) | inactive |  |
| COc1ccc(-c2oc3ncn4nc(COc5ccccc5)nc4c3c2-c2ccc(OC)cc2)cc1 | inactive |  |
| C=CCOC(=O)C1=C(C)NC(SCC(=O)Nc2ccc(C)c(Cl)c2)=C(C#N)C1c1ccco1 (stereo not given) | inactive |  |
| c1ccc2c(-c3nc(C4CCCCC4)no3)cc(-c3ccncc3)nc2c1 | inactive |  |
| COc1cccc2c1C(=O)c1c(O)c3c(c(O)c1C2=O)C[C@@](O)(C(=O)CO)C[C@@H]3O[C@H]1C[C@H](N)[C@H](O)[C@H](C)O1 | inactive |  |
| CC1(C)Cc2c(c(N3CCOCC3)nc3sc4c(NCc5ccco5)nnnc4c23)CS1 | inactive |  |
| O=c1c(-c2ccc3c(c2)OCCO3)c(C(F)(F)F)oc2cc(O)cc(O)c12 | inactive |  |
| COC(=O)c1ccc(-c2sc3nc(N4CCOCC4)c4c(c3c2N)CCCC4)o1 | inactive |  |
| C/C(Cl)=C/Cn1c(SCc2ccc(Cl)cc2)nc2c1c(=O)[nH]c(=O)n2C | inactive |  |
| CCOc1nc(-c2ccccc2)ccc1-c1noc(-c2ccc(OC)c(OC)c2)n1 | inactive |  |
| N#Cc1ccccc1Cn1c(=O)n(Cc2ccc(C(=O)NCc3ccco3)cc2)c(=O)c2ccccc21 | inactive |  |
| CCC(=O)Oc1ccc(C(CC)C(CC)c2ccc(OC(=O)CC)cc2)cc1 (stereo not given) | inactive |  |
| COc1ccc2cc(CN(Cc3ccco3)C(c3nnnn3C3CCCCC3)C(C)C)c(=O)[nH]c2c1 (stereo not given) | inactive |  |
| COC(=O)c1ccccc1NC(=O)c1noc2c1CC(C(C)(C)C)CC2 (stereo not given) | inactive |  |

| SMILES | activation | EC50 [nM] |
| --- | --- | --- |
| Cc1ccc2c(C)nc(Nc3nc(CSc4nnnn4-c4ccccc4)cc(=O)[nH]3)nc2c1 | inactive |  |
| COc1ccc(CN(C(=O)CSc2nnc(-c3ccccc3F)o2)c2ccc(F)cc2)cc1 | inactive |  |
| COc1cccc(-c2nc(-c3ccc(NC(=O)Cc4ccccc4OC)cc3)no2)c1 | inactive |  |
| O=C(NCCSCc1ccco1)Nc1cccc(Cl)c1 | inactive |  |
| COc1ccccc1NC(=O)c1oc2ccccc2c1NC(=O)c1cc(OC)c(OC)c(OC)c1 | inactive |  |
| CN(C)c1ccc(/C=C/C(O)=C2/C(=O)N(C)C3(C)CC2c2ccccc2O3)cc1 (stereo not given) |  | 1990 |
| COc1ccc(-c2noc(CCC(=O)Nc3nc4ccccc4s3)n2)cc1 | inactive |  |
| COc1ccc(-c2oc3ncn4nc(Cc5ccccc5)nc4c3c2-c2ccc(OC)cc2)cc1 | inactive |  |
| N#Cc1nc(COc2ccc(Br)cc2)oc1N1CCN(Cc2ccccc2)CC1 | inactive |  |
| O=C(NCc1ccco1)c1cc2cc3ccc(Cl)cc3nc2o1 | inactive |  |
| CC(C)(C)c1cc(-c2ccco2)c(C#N)c(SCC#N)n1 | inactive |  |
| Cc1c2ccncc2c(C)c2c1[nH]c1ccccc12 |  | 3080 |
| O=S(=O)(c1ccccc1)N(Cc1nc(-c2ccccc2)no1)C1CCCCC1 | inactive |  |
| CCSc1nnc(NC(=O)NC(CC)(C(F)(F)F)C(F)(F)F)s1 | inactive |  |
| O=S(=O)(c1ccc(S(=O)(=O)N(Cc2ccco2)Cc2ccccc2Cl)cc1)N1CCCC1 | inactive |  |
| Cc1ccc(-c2cc(C(F)F)nc(N3CCC(C)CC3)n2)cc1 | inactive |  |
| N#CCSc1nc2c(c(=O)n1Cc1ccco1)C1(CCCC1)Cc1ccccc1-2 | inactive |  |
| CSc1nc2sc3c(c2c(=O)[nH]1)CCC(C)C3 (stereo not given) | inactive |  |
| Cc1ccc(SCc2c(C#N)c3ccccc3n2C)cc1 | inactive |  |
| O=C(c1ccc(Cl)cc1)N1CCCCC(Sc2nnc(-c3ccc4c(c3)OCO4)o2)C1=O (stereo not given) | inactive |  |
| C=CCn1c(=S)[nH]c2ccccc2c1=O | inactive |  |
| CCOc1ccc(S(=O)(=O)N2CCN(c3ccc(C)cc3C)CC2)cc1 | inactive |  |

| SMILES | activation | EC50 [nM] |
| --- | --- | --- |
| CCOC(=O)c1c(-c2ccc(C)o2)csc1NC(=O)COC(=O)c1cccs1 | inactive |  |
| Brc1c(NC2=NCCN2)ccc2nccnc12 |  | 82 |
| COC(=O)c1ccccc1NC(=O)c1ccc(-c2ccccc2F)o1 | inactive |  |
| CCOC(=O)c1sc(NC(=O)c2noc3c2CCCC3)c(C(=O)OCC)c1C | inactive |  |
| Cc1ccc(-c2nn(-c3ccccc3)cc2/C=C(\C#N)c2cccc(C#N)c2)o1 | inactive |  |
| CC1(C)Cc2c(C#N)c(SCCOc3ccccc3)nc(N3CCOCC3)c2CO1 | inactive |  |
| COc1ccc(-c2noc(-c3cc(Cl)ccc3Cl)n2)cc1OC | inactive |  |
| CCc1cc2c(=O)c(-c3ccc4c(c3)OCCO4)coc2cc1OC(=O)c1ccco1 | inactive |  |
| C[C@H]1OC[C@@H](C[N+](C)(C)C)O1 |  | 393 |
| O=c1c2ccccc2sn1-c1ccc(S(=O)(=O)N2CCCCC2)cc1 | inactive |  |
| COc1ccc(-c2nnc(SCC(=O)Nc3ccc(Cl)cc3)n2C)cc1 | inactive |  |
| N/C(=N\c1nc2ccccc2o1)NC(=O)c1ccccc1NC(=O)c1ccccc1 | inactive |  |
| C[C@]12CC[C@@H]3c4ccc(OC(=O)c5ccccc5)cc4CC[C@H]3[C@@H]1CC[C@@H]2O | inactive |  |
| CCCOc1ccc(-c2nnn(CC(=O)Nc3cccc(C(=O)OC)c3)n2)cc1 | inactive |  |
| CCCCC(=O)O[C@H]1CC[C@H]2[C@@H]3CCc4cc(O)ccc4[C@H]3CC[C@]12C | inactive |  |
| Cc1sccc1C1C(C#N)=C(N)SC(N)=C1C#N | inactive |  |
| CCN(CC)c1ccc2cc(C(=O)Nc3ccccn3)c(=O)oc2c1 | inactive |  |
| COc1cccc2c1C(=O)c1c(O)c3c(c(O)c1C2=O)C[C@@](O)(C(C)=O)C[C@@H]3O[C@H]1C[C@H](N)[C@H](O)[C@H](C)O1 | inactive |  |
| Cc1ccc(Cl)cc1N1CCN(C(=O)CN2C(=O)c3cccc4cccc2c34)CC1 | inactive |  |
| CC(=O)OC(C)C[N+](C)(C)C (stereo not given) | inactive |  |
| CC(=O)OCC[N+](C)(C)C |  | 134 |

Source: PubChem BioAssay AID435014 (Vanderbilt High Throughput Screening Facility, 2010)
